Assay results: patent US10070660B2, “Pet food palatability with antimicrobial properties based on organic acids” (KEMIN INDUSTRIES, INC., priority 2012, dated 2018)
“Also recorded” adds a separate entry of the source.

Tests used:
[1] = test system: Salmonella (five Salmonella enterica serovars); test: Dog kibble challenge with dried five strain Salmonella cocktail inoculum; format: cell-based
Description: (§1) One ml of each Salmonella culture was separately inoculated into a beaker containing tempered (ambient), sterilized MBM which was then incubated at 37° C. for 48 hours. Inoculated MBM was dispensed (approx. 200 g) into sterile 250 ml centrifuge bottles and centrifuged at 5,000 rpm for 10 minutes. The supernatant was decanted and autoclaved for disposal. The pellets were suspended in 10 ml TSB-20% glycerol. Suspensions (approximately 150-160 g) were transferred to sterilized 250 ml polycarbonate straight side wide mouth jars with lids (Nalgene, Thermo Scientific). Jars containing MBM-Salmonella suspensions were immediately frozen at −70° C. for 1 hour. Frozen MBM-Salmonella suspensions were lyophilized using a FreeZone-1 Liter benchtop freeze dry system (Labconco) (approx. 96 hours, −50° C.). Each lyophilized Salmonella culture was pulverized to a fine powder using a sterile mortar and pestle. Twenty g of each of the five lyophilized Salmonella cultures was combined in a sterile wide mouth glass jar to make the dried Salmonella cocktail inoculum. […] Solidified plates were incubated inverted at 37° C. for 16-18 hours. Visible colonies were counted and colony forming units per gram were calculated (CFU/g). […] Kibble and inoculum were mixed together for five minutes by hand in a plastic zip top bag, and allowed to rest for 1 hour prior to sampling. Coated, un-inoculated kibble was also included in the study and tested for Salmonella (direct plating and FDA BAM), total aerobic bacteria, mold and yeast counts, pH, percent moisture, and water activity. For each analysis time point challenged kibble was sampled in triplicate. Kibbles were stored at ambient temperature.
(§2) Challenged kibble samples bags were mixed thoroughly, then 5.00 g (±0.01) was aseptically weighed into a sterile plastic bag and diluted with 45 ml sterile Phosphate Buffer (Butterfield) diluent (BPB) containing (g/l) KH2PO4 34.0, pH adjusted to 7.2 with 1N sodium hydroxide and homogenized using a Stomacher (Seward Stomacher 80) for 1 minute and serially diluted in BPB for plating. The plates are poured with tempered (45° C.) XLD agar. After solidification, plates were inverted and placed in an incubator (37° C.). Colonies were counted and CFU/g was calculated. The counts for each triplicate sample were averaged and expressed as log CFU/g. Those samples of which were below the detection limit of <10 CFU/g were assigned 0 log CFU/g for the purpose of statistical analysis. Analysis of Variance using the LSD separation of means method was performed to analyze the data using StatGraphics software (StatPoint Technologies, Inc. Warrenton, Va.).
Dry dog palatants were formulated with fumaric acid or SBS to deliver 0.5% acid to the surface of the kibble. The effect of each acid on Salmonella challenged on the surface of dog kibble was examined. Dog kibbles were challenged with dried five strain Salmonella cocktail inoculum.
The effect of each acid on Salmonella challenged on the surface of dog kibble was examined. Dog kibbles were challenged with dried five strain Salmonella cocktail inoculum prep.

[2] = test system: cats; test: Cat palatability, two-pan method (intake ratio); format: in vivo; settings: for IR-A: Ration B incumbent; for IR: vs name brand cat food
[3] = test system: Salmonella (five Salmonella enterica serovars); test: Cat kibble challenge with dried five strain Salmonella cocktail inoculum; format: cell-based
Description: as §1, §2
All procedures for the Phase 3 kibble challenge were conducted as described for Phase 2.

[4] = pH of 5% (w/v) solution of cat palatant formulated with fumaric acid; format: physicochemical
Description: Preparation of palatant samples. Four samples of a cat palatant formulated with varying levels of fumaric acid (Table 6) were aseptically weighed in duplicate sterile 50 ml conical test tubes. To each test tube, 10 ml of sterile deionized water was added and mixed by vortex. The pH of a 5% (w/v) solution of each palatant was also measured (Table 6).

[5] = pH of fumaric acid-TSB solutions; format: physicochemical
Description: A 0.20% stock solution of fumaric acid was made by dissolving 0.100 g (w/v) fumaric acid in 50 ml sterile deionized water in a flask. The 0.20% stock was diluted 1:2 in sterile deionized water to obtain a 0.10% fumaric acid solution, which was then diluted 1:2 to obtain a 0.05% fumaric acid solution. Each fumaric acid stock solution (0.20%, 0.10% and 0.05%) was further diluted 1:2 in TSB (pH 4.9) to yield fumaric acid-TSB solutions of 0.100%, 0.050% and 0.025%. The pH of each fumaric-TSB solution was measured (Table 1). One hundred μl of each fumaric-TSB solution was added to triplicate wells containing 100 μl standardized inoculum. One hundred μl of untreated (0% fumaric) TSB (pH 4.9) was added to triplicate wells containing 100 μl standardized inoculum as a control. The microplate was placed in a Versamax Microplate Reader (Molecular Devices) (37° C.) with wavelength set to 600 nm. The optical density (OD600) was read every 2 hours for 48 hours.

## O=C(O)/C=C/C(=O)O [Fumaric Acid, fumaric acid]
[1]; Table 15, 0.50% on dog kibble, day 0
  Salmonella: 1.98 ± 0.14^Ca log CFU/g
[1]; Table 15, 0.50% on dog kibble, day 1
  Salmonella: 1.10 ± 0.10^Cb log CFU/g
[1]; Table 15, 0.50% on dog kibble, day 3
  Salmonella: 0.77 ± 0.39^Abc log CFU/g
[1]; Table 15, 0.50% on dog kibble, day 7
  Salmonella: 0.33 ± 0.33^Bcd log CFU/g
[1]; Table 15, 0.50% on dog kibble, day 9
  Salmonella: 0.33 ± 0.33^Bcd log CFU/g
[1]; Table 15, 0.50% on dog kibble, day 14
  Salmonella: 0.00 ± 0.00^Bd log CFU/g
[1]; Table 15, 0.50% on dog kibble, day 21
  Salmonella: 0.00 ± 0.00^Bd log CFU/g
[1]; Table 17, total of 0.5% acid on dog kibble, day 0
  Salmonella: 1.99 ± 0.22^CDa log CFU/g
[1]; Table 17, total of 0.5% acid on dog kibble, day 1
  Salmonella: 0.43 ± 0.43^Bb log CFU/g
[1]; Table 17, total of 0.5% acid on dog kibble, day 6
  Salmonella: 0.00 ± 0.00^Bb log CFU/g
[1]; Table 17, total of 0.5% acid on dog kibble, day 14
  Salmonella: 0.00 ± 0.00^Bb log CFU/g
[1]; Table 17, total of 0.5% acid on dog kibble, day 21
  Salmonella: 0.00 ± 0.00^Bb log CFU/g
[1]; dog kibble challenge
  Salmonella counts on challenged dog kibble vs control palatant (in words): significantly lower Salmonella counts than the control and SBS formula
[2]; Confirmation trials, Prototype 89-87, 0.25% acid on kibble (so in the source)
  IR-A: 0.65 (p ≤ 0.05)
[2]; Example 4 cat trials, formula 89-87 or 89-145 vs incumbent dry palatant
  palatability (in words): parity palatability score; also recorded: scores improved
[2]; First set, Prototype 89-87 at 2.5%, 0.5% total acid on kibble
  IR-A: 0.46 (N.S.)
[2]; Trial 412 (so in the source), 20% fumaric acid in formula (80 mesh), 0.30% on kibble
  IR: 0.77
[2]; Trial 426, 14% fumaric acid in formula (30 mesh sieve), 0.21% on kibble
  IR: 0.57
[2]; Trial 465, 14% fumaric acid in formula (80 mesh sieve), 0.21% on kibble
  IR: 0.62
[2]; Trial 481, 27% fumaric acid in formula (80 mesh), ~0.41% on kibble
  IR: 0.74
[3]; Table 4, 0.21% on cat kibble, day 0
  Salmonella: 2.79 ± 0.35^Aa log CFU/g
[3]; Table 4, 0.21% on cat kibble, day 1
  Salmonella: 2.85 ± 0.07^Aa log CFU/g
[3]; Table 4, 0.21% on cat kibble, day 8
  Salmonella: 2.02 ± 0.13^Bab log CFU/g
[3]; Table 4, 0.21% on cat kibble, day 14
  Salmonella: 1.44 ± 0.24^Bbc log CFU/g
[3]; Table 4, 0.21% on cat kibble, day 22
  Salmonella: 0.77 ± 0.39^Bc log CFU/g
[3]; Table 5, 0.30% on cat kibble, day 0
  Salmonella: 2.44 ± 0.21^Aa log CFU/g
[3]; Table 5, 0.30% on cat kibble, day 1
  Salmonella: 1.26 ± 0.14^Bab log CFU/g
[3]; Table 5, 0.30% on cat kibble, day 5
  Salmonella: 0.57 ± 0.57^Bb log CFU/g
[3]; Table 5, 0.41% on cat kibble, day 0
  Salmonella: 1.46 ± 0.09^Ba log CFU/g
[3]; Table 5, 0.41% on cat kibble, day 1, below detection limit assigned 0
  Salmonella: 0.0 ± 0.0^Cb* log CFU/g
[3]; Table 5, 0.41% on cat kibble, day 5, below detection limit assigned 0
  Salmonella: 0.0 ± 0.0^Bb* log CFU/g
[3]; Table 12, 0.50% total acid on cat kibble, day 0
  Salmonella: 3.38 ± 0.02^Ba log CFU/g
[3]; Table 12, 0.50% total acid on cat kibble, day 1
  Salmonella: 1.98 ± 0.02^Bb log CFU/g
[3]; Table 12, 0.50% total acid on cat kibble, day 5
  Salmonella: 1.10 ± 0.10^Bc log CFU/g
[3]; Table 12, 0.50% total acid on cat kibble, day 7
  Salmonella: 0.33 ± 0.33^Bd log CFU/g
[3]; Table 12, 0.50% total acid on cat kibble, day 14
  Salmonella: 0.33 ± 0.33^Bd log CFU/g
[3]; Table 12, 0.50% total acid on cat kibble, day 21
  Salmonella: 0.00 ± 0.00^Bd log CFU/g
[3]; cat kibble challenge
  Salmonella counts on challenged cat kibble vs control palatant (in words): significant efficacy against Salmonella spp; also recorded: significantly lower Salmonella counts; also recorded: demonstrated antimicrobial activity; also recorded: significant reduction in Salmonella count; also recorded: dose response
[3]; highest level of fumaric acid on cat kibble, after 1 day, detection limit
  Salmonella counts: < 10 CFU/g
[4]; cat palatant with 14% fumaric acid in formula
  pH: 3.15
[4]; cat palatant with 20% fumaric acid in formula
  pH: 3.01
[4]; cat palatant with 27% fumaric acid in formula
  pH: 2.93
[5]; 0.025% fumaric acid
  pH in TSB: 4.67
[5]; 0.050% fumaric acid
  pH in TSB: 4.42
[5]; 0.100% fumaric acid
  pH in TSB: 4.06
